The subject of one data set is Staphylococcus aureus. Put plainly: Antimicrobial activity against methicillin-resistant Staphylococcus aureus ATCC 43300 assessed as growth inhibition measured after 8 hrs incubation by standard broth dilution assay. The format is functional. For orientation: In broth dilution the organism is exposed to a series of concentrations in liquid medium.
A further data set relates to Klebsiella pneumoniae. As to the kind of experiment: Antimicrobial activity against Klebsiella pneumoniae ATCC 13883 assessed as growth inhibition measured after 8 hrs incubation by standard broth dilution assay. The data set is classed as functional.
The next data set has as its system Streptococcus pneumoniae. As to the kind of experiment: Antimicrobial activity against Streptococcus pneumoniae ATCC 49619 assessed as growth inhibition measured after 8 hrs incubation by standard broth dilution assay. The format is functional.
The subject of another data set is Pseudomonas aeruginosa. As to the kind of experiment: Antimicrobial activity against Pseudomonas aeruginosa ATCC 27853 assessed as growth inhibition measured after 8 hrs incubation by standard broth dilution assay. The format is functional.
The nature of data set [1]: Hemolytic activity in BALB/c mouse red blood cells assessed as hemolysis incubated for 1 hrs. The format is toxicity, cell-based, Erythrocyte. Conditions: read-out: HD50.

≈ marks a conversion by molar mass, not a printed value. Positions of bridges follow the written chain, without caps; N, C: chain ends. Non-standard residues stand in square brackets, D forms with d. Residues, ends and D or L forms follow the SMILES beside them. S5 = C=CCCC[C@](C)(N)C(=O)O

For orientation: MIC means the lowest concentration found to suppress growth. `CC(=O)N[C@@H](CC(C)C)C(=O)N[C@@H](CCCCN)C(=O)N[C@@H](CCCNC(=N)N)C(=O)N[C@H](C(=O)N[C@@H](CCCCN)C(=O)N[C@@H](CCCCN)C(=O)N[C@@H](CCCNC(=N)N)C(=O)N[C@H](C(=O)N[C@@H](Cc1ccccc1)C(=O)N[C@@H](CCCCN)C(=O)N[C@@H](CC(C)C)C(=O)N[C@@H](CC(C)C)C(=O)N[C@@H](CCCCN)C(=O)N[C@@]1(C)CCC/C=C\CCC[C@@](C)(C(=O)N[C@@H](CC(C)C)C(=O)N[C@@H](CCCCN)C(=O)N[C@@H](CCCCN)C(=O)N2CCC[C@H]2C(=O)N[C@H](C(=O)N[C@@H](CCCNC(=N)N)C(N)=O)C(C)C)NC(=O)[C@H](CCCNC(=N)N)NC(=O)[C@H](Cc2c[nH]c3ccccc23)NC(=O)[C@H](Cc2ccc(O)cc2)NC1=O)C(C)C)C(C)C` (Ac-LKRVKKRVFKLLK[S5]YWR[S5]LKKPVR-NH2; staple (Z) 14-18): the MIC came out at 19 µg/mL (≈ 5.98 µM) in the data set with Staphylococcus aureus, 10.1 µg/mL (≈ 3.18 µM) with Klebsiella pneumoniae, 4.7 µg/mL (≈ 1.48 µM) in the data set on Streptococcus pneumoniae and 5 µg/mL (≈ 1.57 µM) with Pseudomonas aeruginosa. Besides, the HC50 at 1 h in data set [1] worked out at 15.3 µg/mL.
Taken in the same sequence, the figures for `CC(=O)N[C@@H](CC(C)C)C(=O)N[C@@H](CCCCN)C(=O)N[C@@H](CCCNC(=N)N)C(=O)N[C@H](C(=O)N[C@@H](Cc1c[nH]c2ccccc12)C(=O)N[C@@H](CCCCN)C(=O)N[C@@H](CCCNC(=N)N)C(=O)N[C@@H](CCCCN)C(=O)N[C@@H](Cc1ccccc1)C(=O)N[C@@H](CCCCN)C(=O)N[C@@H](CC(C)C)C(=O)N[C@@H](CC(C)C)C(=O)N[C@@H](CCCCN)C(=O)N[C@@]1(C)CCC/C=C\CCC[C@@](C)(C(=O)N[C@@H](CC(C)C)C(=O)N[C@@H](CCCCN)C(=O)N[C@@H](CCCCN)C(=O)N2CCC[C@H]2C(=O)N[C@H](C(=O)N[C@@H](CCCNC(=N)N)C(N)=O)C(C)C)NC(=O)[C@H](CCCNC(=N)N)NC(=O)[C@H](Cc2c[nH]c3ccccc23)NC(=O)[C@H](Cc2ccc(O)cc2)NC1=O)C(C)C` (Ac-LKRVWKRKFKLLK[S5]YWR[S5]LKKPVR-NH2; staple (Z) 14-18) were 10.1 µg/mL (≈ 3.1 µM), 10.1 µg/mL (≈ 3.1 µM), 2.4 µg/mL (≈ 0.736 µM), 5 µg/mL (≈ 1.53 µM) and 32.3 µg/mL.
In the same order, the values of `CC(=O)N[C@@H](CC(C)C)C(=O)N[C@@H](CCCCN)C(=O)N[C@@H](CCCNC(=N)N)C(=O)N[C@H](C(=O)N[C@@H](Cc1c[nH]c2ccccc12)C(=O)N[C@@H](CCCCN)C(=O)N[C@@H](CCCNC(=N)N)C(=O)N[C@H](C(=O)N[C@@H](Cc1ccccc1)C(=O)N[C@@H](CCCCN)C(=O)N[C@@H](CCCCN)C(=O)N[C@@H](CC(C)C)C(=O)N[C@@H](CCCCN)C(=O)N[C@@]1(C)CCC/C=C\CCC[C@@](C)(C(=O)N[C@@H](CC(C)C)C(=O)N[C@@H](CCCCN)C(=O)N[C@@H](CCCCN)C(=O)N2CCC[C@H]2C(=O)N[C@H](C(=O)N[C@@H](CCCNC(=N)N)C(N)=O)C(C)C)NC(=O)[C@H](CCCNC(=N)N)NC(=O)[C@H](Cc2c[nH]c3ccccc23)NC(=O)[C@H](Cc2ccc(O)cc2)NC1=O)C(C)C)C(C)C` (Ac-LKRVWKRVFKKLK[S5]YWR[S5]LKKPVR-NH2; staple (Z) 14-18) are 10.1 µg/mL (≈ 3.11 µM), 38 µg/mL (≈ 11.7 µM), 4.7 µg/mL (≈ 1.45 µM), 5 µg/mL (≈ 1.54 µM) and 35.2 µg/mL.

The values are drawn from ChEMBL document CHEMBL6153110, “Peptide Double-Stapling and Arginine N-Glycosylation Triggered the Development of Therapeutic Antimicrobial Peptides Capable of Killing Drug-Resistant Bacteria in Mice” (J Med Chem, 2025).
